The source of these data is patent US10947546B2, “Methods and compositions for translational profiling and molecular phenotyping” (The Rockefeller University, priority 2008, dated 2021).

Assay [1] relates to BAC D1 striatonigral medium spiny neurons. The assay is described as follows: 2PLSM dendritic Ca2+ imaging on focal S1P application, BAC D1 neurons in brain slices. It is filed as cell-based, mouse. The conditions noted are these: S1P puff 10 μM, n=4. From the text:
Gpr6 encodes a G protein-coupled receptor for the lysophospholipid sphingosine 1-phosphate (S1P) (A. Ignatov, J. Lintzel, H. J. Kreienkamp, H. C. Schaller, Biochem Biophys Res Commun 311, 329-36 (Nov. 14, 2003)). In heterologous expression systems, S1P activation of Gpr6 receptors induces the release of Ca2+ from intracellular stores. […] To determine whether functional Gpr6 receptors were selectively expressed in striatopallidal neurons, BAC D2 striatopallidal or BAC D1 striatonigral medium spiny neurons (expressing soluble eGFP) were identified in brain slices and patch clamped (FIG. 30) (M. Day et al., Nat Neurosci 9, 251-9 (February, 2006)). […]
Striatonigral (BAC D1) or striatopallidal (BAC D2) neurons expressing soluble eGFP (S. Falcon, R. Person, Bioinformatics 23, 257-8 (2007)) in 275 μm thick corticostriatal slices were identified by somatic eGFP fluorescence. eGFP 2PLSM green signals (500-550 nm) were acquired from eGFP+ BAC Drd2 neurons using 810 nm excitation, while eGFP+ BAC Drd1 neurons required 900 nm excitation. eGFP+ MSNs were then patched using infrared-differential interference contrast (IR-DIC) video microscopy with a Hamamatsu C2400 Newvicon camera/controller system (Hamamatsu, Japan) and a 60X/0.9NA water-dipping lens. […] As measured in the bath, the pipette resistance was ˜4 MΩ. […] The cells were voltage clamped at −70 mV and monitored for somatic depolarization. […]

For a further assay, the system named is DARPP-32. The assay is described as follows: Threonine 34 DARPP-32 phosphorylation after S1P treatment of striatal slices. The format is cell-based. The conditions noted are these: 5 minutes after S1P addition, 1.04±0.17 at 0 minutes, n=12.
The test system of assay [2] is BAC D2 striatopallidal medium spiny neurons. Kind of assay: 2PLSM dendritic Ca2+ imaging on focal S1P application (functional Gpr6 receptors), BAC D2 neurons in brain slices. It is filed as cell-based, mouse. The conditions noted are these: for Percent increase in fluorescence (ΔG/R), median: S1P puff 10 μM. From the text:
Gpr6 encodes a G protein-coupled receptor for the lysophospholipid sphingosine 1-phosphate (S1P) (A. Ignatov, J. Lintzel, H. J. Kreienkamp, H. C. Schaller, Biochem Biophys Res Commun 311, 329-36 (Nov. 14, 2003)). In heterologous expression systems, S1P activation of Gpr6 receptors induces the release of Ca2+ from intracellular stores. […] To determine whether functional Gpr6 receptors were selectively expressed in striatopallidal neurons, BAC D2 striatopallidal or BAC D1 striatonigral medium spiny neurons (expressing soluble eGFP) were identified in brain slices and patch clamped (FIG. 30) (M. Day et al., Nat Neurosci 9, 251-9 (February, 2006)). Neurons were loaded with Alexa 594 (50 μM) to allow dendrites to be seen and with Fluo-4 (200 μM) to monitor intracellular Ca2+ concentration using 2-photon laser scanning microscopy (2PLSM). After allowing the dyes to equilibrate, neurons were imaged and a second pipette containing S1P (10 μM) was brought into close physical proximity to a dendrite, 60-80 microns from the soma (a and b). […] Nairn, P. Greengard, J Neurochem 72, 2015-21 (May, 1999)) and/or inhibition of adenylyl cyclase type 5 (AC5; Adcy5) (C.
Striatonigral (BAC D1) or striatopallidal (BAC D2) neurons expressing soluble eGFP (S. Falcon, R. Person, Bioinformatics 23, 257-8 (2007)) in 275 μm thick corticostriatal slices were identified by somatic eGFP fluorescence. eGFP 2PLSM green signals (500-550 nm) were acquired from eGFP+ BAC Drd2 neurons using 810 nm excitation, while eGFP+ BAC Drd1 neurons required 900 nm excitation. eGFP+ MSNs were then patched using infrared-differential interference contrast (IR-DIC) video microscopy with a Hamamatsu C2400 Newvicon camera/controller system (Hamamatsu, Japan) and a 60X/0.9NA water-dipping lens. […] The pipette solution contained the following (in mM): 135 KMeSO4 (ICN Biomedicals Inc., Aurora, Ohio), 5 KCl, 10 HEPES, 2 MgATP, 0.2 Na2GTP, and 0.1 spermine, pH=7.25-7.3 with KOH, 270 mOsm/l. As measured in the bath, the pipette resistance was ˜4 MΩ. Seals were formed in voltage-clamp mode on the cell somas with series resistance >1 GΩ. After seal rupture in whole-cell configuration the series-resistance decreased to 10-15 MΩ. […] The thapsigargin was initially dissolved in DMSO at a concentration of 10 mM. This stock was then diluted 1000× in the internal recording solution. Following break in, the internal solution was allowed to approach diffusional equilibrium for at least 15 min prior to imaging. The cells were voltage clamped at −70 mV and monitored for somatic depolarization.
For the duration of the recordings, 2PLSM green and red signals (570-620 nm) were acquired using 810 nm excitation with 90 MHz pulse repetition frequency and ˜250 fs pulse duration at the sample plane.

Assay [3] deals with GABAA receptor mIPSCs in BAC D1 striatonigral neurons. The assay is described as follows: Whole-cell voltage-clamp GABAergic mIPSC recording after 15-day cocaine treatment, BAC D1 neurons.
In assay [4] the test system is GABAA receptor mIPSCs in BAC D2 striatopallidal neurons. The assay is described as follows: Whole-cell voltage-clamp GABAergic mIPSC recording after 15-day cocaine treatment, BAC D2 neurons. It is filed as in vivo, mouse. The conditions noted are these: cocaine 15 days.
Assay [5] concerns Ferritin heavy chain mRNA (Fth1). The conditions noted are these: 100 μg/ml ferric ammonium citrate, 36 hours, HEK293T. As to the method: Rapid immunoaffinity purification of polysomes was achieved from HEK293T cells transiently transfected with the eGFP-L10a transgene but not mock transfected cells. HEK293T cells transfected with eGFP-L10a were homogenized in lysis buffer. The solubilized and clarified lysate was loaded onto a linear density (20-50% w/w) gradient of sucrose and centrifuged for 2 hours at 4° C. using a Beckman SW41 rotor at 40,000 r. p. m. (200,000×g). 750 μl fractions were collected as absorbance at 254 nm was monitored with an ISCO UA-6 UV detector.
HEK293T cells were transiently transfected (˜30% efficiency) with eGFP (mock) or eGFP-L10a constructs and grown in medium alone (no treatment, NT) or in medium supplemented with 100 μg/ml ferric ammonium citrate [pH 7.0] (iron) for 36 hours. […] (b) The post-mitochondrial supernatants of untreated or iron-treated cells were loaded onto linear sucrose gradients (20-50% w/w). After velocity sedimentation, fractions (direction of sedimentation noted by arrow) were collected while UV absorbance (254 nm) was being measured. […] Non-polysome and polysome gradient fractions were generated as indicated. To avoid Ferritin mRNAs associated with mRNPs, only heavier polysomes (with greater than 4 ribosomes) were included in the polysome fraction. […] (e) To determine if the translating ribosome affinity purification (TRAP) methodology could faithfully reflect the changes observed in c, a direct eGFP immunoprecipitation of post-mitochondrial supernatants (whole cell lysates, unfractionated) was performed.
In some experiments, 20 ng of purified RNA was used to produce cDNA with a NuGEN WT Ovation kit (NuGEN Technologies, San Carlos, Calif.) and the resulting cDNA was purified and quantified. 10 ng of cDNA was used for each real-time gene expression assay. Applied Biosystems (Foster City, Calif.) TaqMan pre-designed gene expression assays were used, following the manufacturer's instructions and using an Applied Biosystems 7900 Sequence Detection System.
Table 10). To provide an initial test of the data, quantitative PCR studies were carried out using independent biological BACarray D1 and D2 samples and a different cDNA amplification procedure (A. Alexa, J. Rahnenfuhrer, T. Lengauer, Bioinformatics 22, 1600-7 (2006)).

Where [6] appears, read: iron treatment, range from replicates.

As to `CCCCCCCCCCCCC/C=C/[C@@H](O)[C@@H](N)COP(=O)(O)O` [S1P, sphingosine 1-phosphate], the “Percent increase in fluorescence (ΔG/R), median” value in assay [1] is on record as 17%; in assay [2] (BAC D2 medium spiny neurons, n=6), 146%; in assay [2] (thapsigargin loaded BAC D2 medium spiny neurons, n=4), 4%. Also, in the assay on DARPP-32, the “threonine 34 DARPP-32 phosphorylation” value is given as 0.58 normalized units. The “dendritic Ca2+ levels” value in assay [2] (focal application of S1P 10 μM, clamped at −70 mV, BAC D2) is “consistently and reversibly increased”.
In the case of `COC(=O)[C@H]1[C@@H](OC(=O)c2ccccc2)C[C@@H]2CC[C@H]1N2C` [cocaine], the “mIPSC frequency, median” value in assay [3] (cocaine 20 mg/kg/day 15 days, saline median 0.82 Hz) is recorded as 1.03 Hz. Further, the “mean 10-90% rise times of mIPSCs” value was 0.65±0.006 in assay [3] (cocaine 15 days, saline 0.64±0.008) and 0.64±0.010 in assay [4] (saline 0.65±0.007). The “mean number of channels per synapse (N)” value came out at 29.3±1.0 in assay [3] (cocaine 15 days, saline 33.1±1.4) and 33.0±1.6 in assay [4] (saline 33.8±2.7). Further, the “number of small amplitude mIPSCs (<75 pA) in equal length records (7 min)” value in assay [3] (cocaine 15 days, saline 79.4±8.2) is given as 104.2±6.3; in assay [4] (saline 68.1±9.7) it was 71.7±7.5. In assay [3] (cocaine 15 days, saline N=33), the “GABAA receptors (N) per synapse, representative variance-mean current plot” value is 27. Moreover, the “unitary receptor conductance (g), representative variance-mean current plot” value came out at 30 pS in assay [3] (cocaine 15 days, saline g=31 pS) and 29 pS in assay [4] (saline g=33 pS). The “mean mIPSC frequency” value in assay [4] (saline 0.72±0.05 Hz) came to 0.78±0.07 Hz. The “number of receptors per synapse (N), representative variance-mean current plot” value in assay [4] (saline N=29) is reported as 31.
Regarding `C/C=C(/C)C(=O)O[C@H]1C(C)=C2[C@H]([C@@H]1OC(=O)CCCCCCC)[C@@](C)(OC(C)=O)C[C@H](OC(=O)CCC)[C@@]1(O)[C@H]2OC(=O)[C@@]1(C)O` [thapsigargin], the “response to S1P in BAC D2 striatopallidal neurons” value in assay [2] (thapsigargin 10 μM in pipette, depletion of intracellular Ca2+ stores) was “abolished”.
Turning to ferric ammonium citrate [iron], in assay [5] (IP from polysomes), the “iron-induced fold-change in Fth1 mRNA levels relative to Actb mRNA, polysome IP samples” value is given as 2.01-2.43. In addition, in assay [5] (IP from whole cell lysates), the “iron-induced fold-change in Fth1 mRNA levels relative to Actb mRNA, direct IP samples” value is given as 1.80-1.93. Besides, in assay [5] (setting [6]), the “range of fold-change of Fth1 mRNA in non-polysome fraction” value is given as 0.16-0.22 and the “range of fold-change of Fth1 mRNA in polysome fraction” value was 1.83-2.15.
